Results reported in ChEMBL document CHEMBL1201862, “PubChem BioAssay data set” (2004).
Activity calls are given as the source filed them. Cut-off read from the data, not from the text of the source, for most assays here: actives have a measured EC50 and inactives only a lower limit.

What was measured:
[1] = Luminescence Cell-Based Dose Response HTS to Identify Inhibitors of 5'UTR Stem-Loop Driven Prion Protein mRNA Translation in H4 Neuroglioblastoma Cells. [Related pubchem assays: 1827 (Project Summary), 1813 (Primary HTS)]; assay type: functional
[2] = inhibitors of SNCA 5'UTR-driven reporter translation, confirmation, H4 neuroglioma cells, luminescence (AID 1988); assay type: functional, cell-based
[3] = inhibitors of firefly luciferase expression or activity, dose response, H4 neuroglioma cells, luminescence (AID 1990); assay type: functional, cell-based
H9c2 = test: cells; assay type: functional, cell-based; conditions: Rattus norvegicus, H9c2, Myocardium;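 note: confirmatory concentration-response retest of ultra-high-throughput screening hits for modulation of myocardial damage; cell death induced by hydrogen peroxide oxidative stress; compound pretreatment for 60 min then peroxide exposure for 2 h; potency is for protecting the cells against peroxide damage rather than for killing them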
Streptokinase A = target: T1, Streptokinase A (Streptococcus pyogenes serotype M1, UniProt P10520); test: S. pyogenes streptokinase expression inhibitors, potency, dose response, plasminogen activation absorbance, OD405 (AID 1914); assay type: functional, Streptococcus pyogenes M1 GAS;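 note: secreted streptokinase activity via plasminogen activation per viability signal from cell pellet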
T1 sequence (P10520 whole entry): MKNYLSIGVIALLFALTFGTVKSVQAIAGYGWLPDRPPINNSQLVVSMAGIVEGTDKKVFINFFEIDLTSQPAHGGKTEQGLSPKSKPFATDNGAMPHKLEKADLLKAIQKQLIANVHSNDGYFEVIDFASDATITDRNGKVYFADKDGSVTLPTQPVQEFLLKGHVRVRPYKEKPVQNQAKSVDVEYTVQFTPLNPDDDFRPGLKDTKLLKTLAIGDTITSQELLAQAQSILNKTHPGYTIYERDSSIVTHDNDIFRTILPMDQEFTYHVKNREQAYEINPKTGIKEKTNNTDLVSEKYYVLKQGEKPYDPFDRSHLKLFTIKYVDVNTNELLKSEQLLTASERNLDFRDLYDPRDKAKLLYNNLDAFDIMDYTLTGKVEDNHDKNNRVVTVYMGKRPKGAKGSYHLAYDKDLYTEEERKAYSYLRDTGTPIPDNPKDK

Streptococcus = test: Group A Streptococcus viability loss, dose response, counter-screen for streptokinase expression inhibitor project, luminescence, BacTiterGlo (AID 1915); assay type: functional, organism-based;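 note: potency for reduction of bacterial viability or growth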
[4] = test system: Streptococcus sp. 'group A'; test: growth inhibition of control SK(-) GAS strain, dose response, counter-screen for streptokinase expression inhibitor project, luminescence, kanamycin, BacTiterGlo, confirmation (AID 1900); assay type: functional, organism-based
[5] = target: Luciferin 4-monooxygenase (Photinus pyralis, UniProt P08659); test: firefly luciferase enzyme inhibitors, dose response, biochemical, luminescence (AID 1891)
[6] = Luminescence Cell-Based Dose Confirmation HTS to Identify Inhibitors of Platelet Dense Granule Release. [Related pubchem assays: 1663 (Primary HTS), 1678 (Summary of Project)]; assay type: functional
[7] = target: T2, Sentrin-specific protease 6 (Homo sapiens, UniProt Q9GZR1); assay type: functional;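 note: Luminescence-based dose-response confirmatory assay of SENP6 inhibition, following up an ultra-high-throughput screen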
T2 sequence (Q9GZR1 whole entry): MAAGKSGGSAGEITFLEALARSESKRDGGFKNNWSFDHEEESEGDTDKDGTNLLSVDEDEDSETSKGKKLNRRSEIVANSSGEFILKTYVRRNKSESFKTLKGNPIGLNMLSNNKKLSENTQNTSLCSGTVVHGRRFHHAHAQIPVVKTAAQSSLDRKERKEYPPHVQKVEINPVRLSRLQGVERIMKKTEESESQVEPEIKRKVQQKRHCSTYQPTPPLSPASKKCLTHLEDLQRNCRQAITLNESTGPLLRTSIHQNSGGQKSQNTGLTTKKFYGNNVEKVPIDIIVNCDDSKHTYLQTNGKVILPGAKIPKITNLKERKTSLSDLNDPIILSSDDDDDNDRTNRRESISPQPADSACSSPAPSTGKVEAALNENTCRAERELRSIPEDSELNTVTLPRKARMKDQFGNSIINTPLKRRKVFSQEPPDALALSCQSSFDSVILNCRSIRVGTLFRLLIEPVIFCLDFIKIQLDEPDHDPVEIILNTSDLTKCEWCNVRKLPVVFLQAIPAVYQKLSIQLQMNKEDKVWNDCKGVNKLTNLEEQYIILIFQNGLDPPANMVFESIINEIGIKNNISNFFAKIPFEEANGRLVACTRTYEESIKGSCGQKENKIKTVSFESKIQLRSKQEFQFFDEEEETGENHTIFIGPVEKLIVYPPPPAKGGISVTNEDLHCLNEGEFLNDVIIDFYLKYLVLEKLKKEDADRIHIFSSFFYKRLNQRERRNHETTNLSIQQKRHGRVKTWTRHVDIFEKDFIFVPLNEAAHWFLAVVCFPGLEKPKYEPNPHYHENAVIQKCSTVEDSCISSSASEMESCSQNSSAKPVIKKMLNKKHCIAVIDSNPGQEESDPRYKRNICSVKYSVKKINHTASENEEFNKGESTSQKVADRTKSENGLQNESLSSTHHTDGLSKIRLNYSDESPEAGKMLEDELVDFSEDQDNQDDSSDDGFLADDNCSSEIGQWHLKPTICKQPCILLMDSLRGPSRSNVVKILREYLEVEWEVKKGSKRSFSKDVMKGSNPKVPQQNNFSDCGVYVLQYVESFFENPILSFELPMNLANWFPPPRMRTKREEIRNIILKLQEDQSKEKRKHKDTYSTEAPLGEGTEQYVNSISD

[8] = target: T3, Sentrin-specific protease 8 (Homo sapiens, UniProt Q96LD8); assay type: functional;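 note: luminescence read-out of SENP8 inhibition, dose-response confirmation following an ultra-high-throughput screen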
T3 sequence (Q96LD8 whole entry): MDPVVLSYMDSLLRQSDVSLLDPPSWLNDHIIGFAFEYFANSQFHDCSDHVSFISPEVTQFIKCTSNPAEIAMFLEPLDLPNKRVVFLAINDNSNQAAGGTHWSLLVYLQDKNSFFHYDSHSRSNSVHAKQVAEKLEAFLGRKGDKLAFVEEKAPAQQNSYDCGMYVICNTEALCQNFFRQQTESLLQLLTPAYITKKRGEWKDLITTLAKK

[9] = target: T4, Sentrin-specific protease 7 (Homo sapiens, UniProt Q9BQF6); assay type: functional;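 note: Luminescence-based dose-response confirmation of ultra-high-throughput screening hits, measuring inhibition of SENP7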
T4 sequence (Q9BQF6 whole entry): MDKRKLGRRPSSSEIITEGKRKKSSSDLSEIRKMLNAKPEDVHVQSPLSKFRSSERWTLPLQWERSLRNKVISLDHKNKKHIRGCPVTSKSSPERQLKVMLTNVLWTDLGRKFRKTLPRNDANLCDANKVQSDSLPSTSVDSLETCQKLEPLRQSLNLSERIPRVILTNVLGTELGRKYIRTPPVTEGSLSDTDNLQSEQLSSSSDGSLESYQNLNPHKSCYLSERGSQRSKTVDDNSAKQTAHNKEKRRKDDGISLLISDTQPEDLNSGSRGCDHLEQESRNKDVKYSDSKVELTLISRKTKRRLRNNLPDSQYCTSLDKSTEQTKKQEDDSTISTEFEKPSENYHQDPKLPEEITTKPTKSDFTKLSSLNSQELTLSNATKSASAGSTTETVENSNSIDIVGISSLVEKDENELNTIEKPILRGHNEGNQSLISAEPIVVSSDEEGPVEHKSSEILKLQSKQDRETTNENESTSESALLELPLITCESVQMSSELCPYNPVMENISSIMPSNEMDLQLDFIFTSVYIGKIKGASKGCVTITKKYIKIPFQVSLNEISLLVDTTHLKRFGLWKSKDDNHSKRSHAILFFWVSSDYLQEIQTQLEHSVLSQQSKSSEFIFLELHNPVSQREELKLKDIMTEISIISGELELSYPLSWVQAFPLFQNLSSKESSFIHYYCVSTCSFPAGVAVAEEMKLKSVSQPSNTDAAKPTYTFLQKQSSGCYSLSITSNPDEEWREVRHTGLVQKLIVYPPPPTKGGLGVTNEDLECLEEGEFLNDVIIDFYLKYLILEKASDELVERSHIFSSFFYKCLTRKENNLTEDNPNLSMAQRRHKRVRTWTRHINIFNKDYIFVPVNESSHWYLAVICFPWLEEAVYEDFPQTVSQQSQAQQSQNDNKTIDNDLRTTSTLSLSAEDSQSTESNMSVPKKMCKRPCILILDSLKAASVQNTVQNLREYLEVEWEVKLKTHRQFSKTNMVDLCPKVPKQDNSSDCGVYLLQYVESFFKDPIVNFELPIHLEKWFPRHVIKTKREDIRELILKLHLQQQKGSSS

[10] = target: T5, Microphthalmia-associated transcription factor (Homo sapiens, UniProt O75030); test: TRPM1 promoter luciferase signal decrease, dose response, MITF inhibitor project, cell-based, SK-MEL-5, cherry-picked, set 3 (AID 493073); assay type: functional
T5 sequence (O75030 whole entry): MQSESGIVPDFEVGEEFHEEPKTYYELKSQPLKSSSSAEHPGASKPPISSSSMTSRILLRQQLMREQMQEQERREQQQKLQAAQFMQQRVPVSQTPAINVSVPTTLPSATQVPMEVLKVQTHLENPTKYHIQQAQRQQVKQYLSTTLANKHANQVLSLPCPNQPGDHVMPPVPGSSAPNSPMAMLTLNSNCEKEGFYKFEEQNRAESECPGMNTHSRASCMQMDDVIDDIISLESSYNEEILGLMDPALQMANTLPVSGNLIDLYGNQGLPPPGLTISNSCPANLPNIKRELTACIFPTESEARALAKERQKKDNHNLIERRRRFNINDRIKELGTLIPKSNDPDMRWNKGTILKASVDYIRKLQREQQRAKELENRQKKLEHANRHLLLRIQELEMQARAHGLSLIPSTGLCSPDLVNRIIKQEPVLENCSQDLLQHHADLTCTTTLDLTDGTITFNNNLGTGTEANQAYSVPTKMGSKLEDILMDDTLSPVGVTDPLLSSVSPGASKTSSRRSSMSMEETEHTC

[11] = target: Glyceraldehyde-3-phosphate dehydrogenase (Homo sapiens, UniProt P04406)
Glyceraldehyde-3-phosphate dehydrogenase, sequence (P04406 whole entry): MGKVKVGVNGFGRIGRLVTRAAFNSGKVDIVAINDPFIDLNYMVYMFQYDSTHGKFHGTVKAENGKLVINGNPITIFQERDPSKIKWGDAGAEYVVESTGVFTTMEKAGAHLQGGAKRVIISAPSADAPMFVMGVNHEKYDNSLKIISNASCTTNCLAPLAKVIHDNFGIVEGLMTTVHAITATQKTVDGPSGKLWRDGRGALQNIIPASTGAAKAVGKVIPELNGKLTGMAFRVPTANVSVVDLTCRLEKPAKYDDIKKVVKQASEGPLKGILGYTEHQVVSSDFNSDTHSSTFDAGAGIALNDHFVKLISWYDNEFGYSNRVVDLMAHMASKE

Luciferin 4-monooxygenase, sequence (P08659 whole entry): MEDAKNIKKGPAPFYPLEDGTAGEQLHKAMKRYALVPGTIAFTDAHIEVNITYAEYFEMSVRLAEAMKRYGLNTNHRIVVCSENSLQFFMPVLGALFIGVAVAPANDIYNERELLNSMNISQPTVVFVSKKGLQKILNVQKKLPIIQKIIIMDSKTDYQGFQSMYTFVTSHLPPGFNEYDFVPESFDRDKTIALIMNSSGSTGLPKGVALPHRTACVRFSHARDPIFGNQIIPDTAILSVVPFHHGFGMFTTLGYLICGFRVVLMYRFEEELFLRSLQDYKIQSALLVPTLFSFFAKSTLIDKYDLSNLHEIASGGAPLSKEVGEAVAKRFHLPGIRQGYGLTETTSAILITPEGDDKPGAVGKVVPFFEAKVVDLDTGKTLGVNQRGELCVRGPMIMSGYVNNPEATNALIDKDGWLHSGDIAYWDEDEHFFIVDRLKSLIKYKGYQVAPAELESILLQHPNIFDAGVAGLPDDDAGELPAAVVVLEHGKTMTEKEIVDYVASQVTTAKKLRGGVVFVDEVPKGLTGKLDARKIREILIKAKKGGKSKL

CC(NC(=O)COC(=O)c1ccc2c(c1)S(=O)(=O)N=C1CCCCCN12)C12CC3CC(CC(C3)C1)C2 (stereo not drawn)
EC50 [1]: > 120 µM (not active)
EC50 [2]: 15.5 µM (active)
EC50 [3]: > 120 µM (not active)

Cc1cc(C)c(C(=O)CC(=O)c2ccccc2Cl)c(O)c1
IC50 (H9c2): 11.7 µM (active)
EC50 (Streptokinase A): > 150 µM (not active)
EC50 (Streptococcus): 23.5 µM (active)
EC50 [4]: 7.46 µM (active)

O=C(CCc1nnc(-c2ccc(-c3ccccc3)cc2)o1)NCCc1ccccn1
EC50 [1]: 21.4 µM (active)

CCOc1ccc(-c2nc3n(c(=O)c2C#N)CCCS3)cc1
EC50 (Streptokinase A): > 150 µM (not active)
EC50 [5]: > 112 µM (not active)
EC50 (Streptococcus): 148 µM (active)
EC50 [4]: 11.9 µM (active)
EC50 [6]: > 112 µM (not active)

Cn1c(/C(C#N)=C/c2ccc(O)cc2)nc2ccccc21
IC50 [7]: 28.3 µM (active)
IC50 [8]: 45 µM (active)
IC50 [9]: 12 µM (active)

Cc1onc(-c2ccccc2Cl)c1C(=O)NC(=S)Nc1ccc(C(C)(C)C)cc1
EC50 [1]: > 120 µM (not active)
EC50 [2]: 107 µM (active)
EC50 [3]: > 120 µM (not active)

COC(=O)c1ccc(C2C(C(=O)c3ccc4c(c3)CC(C)O4)=C(O)C(=O)N2Cc2ccncc2)cc1 (stereo not drawn)
EC50 [5]: > 112 µM (not active)
EC50 [6]: > 112 µM (not active)

Cc1c(CCC(=O)N2CCC[C@H]2C(=O)O)c(=O)oc2c(C)c3oc4c(c3cc12)CCCC4
EC50 [1]: 16.2 µM (active)
EC50 [2]: 14 µM (active)
EC50 [3]: 15.9 µM (active)

COc1cccc(-n2nc3c(S)nnc(C)c3c2C)c1
EC50 [1]: > 120 µM (not active)
EC50 [2]: > 120 µM (not active)
EC50 [3]: 16.2 µM (active)

COc1ccccc1N1C(=O)N(C(C)=O)C2C1Nc1ccccc1N2C (stereo not drawn)
AC50 [10]: 10.5 µM (active)

CCC(c1nnnn1Cc1ccccc1)N(Cc1ccco1)Cc1cc2cc(OC)ccc2nc1O (stereo not drawn)
EC50 [5]: > 112 µM (not active)
EC50 [6]: > 112 µM (not active)

O=C(Nc1ccc(CN2CCOCC2)cc1)c1ccc(-c2cccc([N+](=O)[O-])c2)o1
IC50 (H9c2): > 79 µM (inactive)

Cc1sc2nc(COC(=O)Cc3ccccc3)nc(O)c2c1C
IC50 (H9c2): 23.4 µM (active)

COc1cc2c(cc1OC)C(SC)=NC1(CCCC1)C2
AC50 [10]: 9.44 µM (active)

COc1ccc(Cl)cc1S(=O)(=O)Nc1cnc2ccccc2c1
IC50 [11]: > 10 µM (inconclusive)

Cc1ccc(CNc2cc(-c3nn4c(C)nnc4s3)ccc2C)s1
EC50 [1]: 56.1 µM (active)
EC50 [2]: 22.5 µM (active)
EC50 [3]: 9.69 µM (active)

COc1ccccc1NS(=O)(=O)c1cc(NC(=O)CCc2nc(O)c3ccccc3n2)ccc1C
IC50 (H9c2): > 79 µM (inactive)

COc1ccccc1CN(C(=O)CNC(=O)c1ccco1)C(C(=O)NCC1CCCO1)c1ccccc1 (stereo not drawn)
IC50 (H9c2): > 79 µM (inactive)

Nc1ccc(-c2cc3ccccc3c(=O)o2)cc1
AC50 [10]: 0.293 µM (active)

CCOC(=O)C1=C(NC(=O)c2oc3ccccc3c2COC)Nc2ccccc2N=C1C
IC50 (H9c2): > 79 µM (inactive)

O=C(N/N=C/c1ccccn1)c1cc(-c2ccc(Cl)s2)n[nH]1
IC50 (H9c2): > 79 µM (inactive)

COc1cc(C(=O)N/N=C/c2ccc(OC(=O)c3ccccc3Cl)cc2)ccc1O
IC50 (H9c2): > 79 µM (inactive)

COc1cccc(/C=N/NC(=O)N/N=C/c2cccc(OC)c2O)c1O
EC50 [1]: > 120 µM (not active)
EC50 [2]: 9.36 µM (active)
EC50 [3]: 15.5 µM (active)

Cc1ccc(C)n1-c1ccc(S(N)(=O)=O)cc1
IC50 [11]: > 100 µM (not active)

O=C(NCCCO)c1cc(-c2cc(F)c(Cl)cc2Cl)n[nH]1
IC50 [11]: > 10 µM (inconclusive)
